Test results from ChEMBL document CHEMBL3124876, “A perylene derivative regulates HIF-1α and Stat3 signaling pathways” (Bioorg Med Chem, 2014).
Activity calls are given as the source filed them. The rule behind the calls is not given here.

What was measured:
[1] = biological target: Proto-oncogene tyrosine-protein kinase Src (Homo sapiens) (UniProt P12931); assay: Inhibition of […] phosphorylation in human MDA-MB-231 cells at 0.05 to 10 uM by Western blotting analysis; format: cell-based
[2] = biological target: Tyrosine-protein kinase JAK2 (Homo sapiens) (UniProt O60674); assay: Inhibition of JAK2 phosphorylation in human MDA-MB-231 cells at 0.05 to 10 uM by Western blotting analysis; format: cell-based
[3] = biological target: Aryl hydrocarbon receptor nuclear translocator (Homo sapiens) (UniProt P27540); assay: Inhibition of HIF-1 beta in human MDA-MB-231 cells at 1 to 20 uM by Western blotting analysis; format: cell-based
[4] = biological target: Histone acetyltransferase p300 (Homo sapiens) (UniProt Q09472); assay: Inhibition of P300 in human MDA-MB-468 cells at 1 to 20 uM by Western blotting analysis; format: cell-based
Sequence of Histone acetyltransferase p300 (Homo sapiens) (Q09472 whole entry): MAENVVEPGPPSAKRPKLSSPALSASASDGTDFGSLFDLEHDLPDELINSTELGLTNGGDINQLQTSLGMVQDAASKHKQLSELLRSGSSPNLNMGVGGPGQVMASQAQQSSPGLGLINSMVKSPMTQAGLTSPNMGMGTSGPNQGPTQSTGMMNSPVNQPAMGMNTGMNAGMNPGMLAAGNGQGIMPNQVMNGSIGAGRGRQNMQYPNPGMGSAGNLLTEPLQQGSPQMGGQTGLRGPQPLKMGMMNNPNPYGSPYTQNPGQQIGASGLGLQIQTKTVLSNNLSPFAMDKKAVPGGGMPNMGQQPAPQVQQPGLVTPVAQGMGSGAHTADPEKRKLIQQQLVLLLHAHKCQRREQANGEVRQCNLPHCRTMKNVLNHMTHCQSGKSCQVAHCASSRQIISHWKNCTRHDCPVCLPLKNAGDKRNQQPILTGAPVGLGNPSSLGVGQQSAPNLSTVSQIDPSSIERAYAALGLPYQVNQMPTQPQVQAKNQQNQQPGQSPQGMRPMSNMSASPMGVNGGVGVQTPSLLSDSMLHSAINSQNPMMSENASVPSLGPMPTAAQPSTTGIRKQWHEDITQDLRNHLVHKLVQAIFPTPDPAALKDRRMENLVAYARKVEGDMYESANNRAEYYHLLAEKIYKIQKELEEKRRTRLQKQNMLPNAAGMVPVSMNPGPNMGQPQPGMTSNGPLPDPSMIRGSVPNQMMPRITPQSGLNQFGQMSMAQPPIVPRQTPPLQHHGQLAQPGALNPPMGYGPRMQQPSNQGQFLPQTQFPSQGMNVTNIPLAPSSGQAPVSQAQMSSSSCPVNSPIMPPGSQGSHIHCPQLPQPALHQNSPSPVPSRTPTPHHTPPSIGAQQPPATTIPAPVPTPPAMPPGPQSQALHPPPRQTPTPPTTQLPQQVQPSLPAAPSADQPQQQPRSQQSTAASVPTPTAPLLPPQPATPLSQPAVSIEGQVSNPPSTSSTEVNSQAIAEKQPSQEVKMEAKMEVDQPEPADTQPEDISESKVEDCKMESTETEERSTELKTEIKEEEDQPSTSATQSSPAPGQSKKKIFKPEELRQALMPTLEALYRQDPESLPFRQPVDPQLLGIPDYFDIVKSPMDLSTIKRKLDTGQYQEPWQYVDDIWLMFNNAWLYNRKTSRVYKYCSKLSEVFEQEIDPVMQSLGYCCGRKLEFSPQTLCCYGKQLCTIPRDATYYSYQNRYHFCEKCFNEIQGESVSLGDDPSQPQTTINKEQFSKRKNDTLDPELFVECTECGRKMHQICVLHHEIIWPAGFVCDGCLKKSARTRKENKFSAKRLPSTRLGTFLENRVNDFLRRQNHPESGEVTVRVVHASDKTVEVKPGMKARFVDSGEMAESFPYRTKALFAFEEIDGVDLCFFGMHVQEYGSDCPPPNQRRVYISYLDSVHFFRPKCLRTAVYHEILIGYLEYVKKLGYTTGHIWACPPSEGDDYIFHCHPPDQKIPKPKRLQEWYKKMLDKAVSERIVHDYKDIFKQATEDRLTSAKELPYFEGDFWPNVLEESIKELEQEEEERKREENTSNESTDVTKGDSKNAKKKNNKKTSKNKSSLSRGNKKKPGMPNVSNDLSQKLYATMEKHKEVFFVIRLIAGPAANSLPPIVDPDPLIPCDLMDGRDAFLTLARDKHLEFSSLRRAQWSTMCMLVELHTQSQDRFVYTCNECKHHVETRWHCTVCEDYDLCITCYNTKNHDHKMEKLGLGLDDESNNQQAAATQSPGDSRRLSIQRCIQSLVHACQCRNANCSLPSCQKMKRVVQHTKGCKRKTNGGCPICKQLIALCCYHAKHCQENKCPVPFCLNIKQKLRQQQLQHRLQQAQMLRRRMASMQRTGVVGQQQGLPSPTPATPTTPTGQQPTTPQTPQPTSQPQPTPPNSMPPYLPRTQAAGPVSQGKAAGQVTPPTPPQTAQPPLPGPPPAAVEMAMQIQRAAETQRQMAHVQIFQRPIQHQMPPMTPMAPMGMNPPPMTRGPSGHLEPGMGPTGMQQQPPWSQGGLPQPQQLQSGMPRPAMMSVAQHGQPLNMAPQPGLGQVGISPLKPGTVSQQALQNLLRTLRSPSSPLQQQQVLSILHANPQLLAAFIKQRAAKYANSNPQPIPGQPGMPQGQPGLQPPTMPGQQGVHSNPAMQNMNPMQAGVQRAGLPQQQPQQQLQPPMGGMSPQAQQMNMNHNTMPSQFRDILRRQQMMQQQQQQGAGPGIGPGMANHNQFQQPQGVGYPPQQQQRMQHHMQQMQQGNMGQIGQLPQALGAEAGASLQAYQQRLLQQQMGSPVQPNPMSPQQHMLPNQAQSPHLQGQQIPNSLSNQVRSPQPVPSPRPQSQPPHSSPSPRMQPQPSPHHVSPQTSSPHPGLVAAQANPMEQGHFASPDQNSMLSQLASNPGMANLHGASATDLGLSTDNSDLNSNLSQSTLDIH

[5] = biological target: Histone acetyltransferase p300 (Homo sapiens) (UniProt Q09472); assay: Inhibition of P300 in human MDA-MB-231 cells at 1 to 20 uM by Western blotting analysis; format: cell-based
[6] = tested on: OVCAR-3; assay: Reduction of total Stat3 level in human OVCAR3 cells at 1 to 20 uM by Western blotting analysis; format: functional, cell-based
[7] = tested on: PANC-1; assay: Reduction of total Stat3 level in human PANC1 cells at 0.5 to 20 uM by Western blotting analysis; format: functional, cell-based
[8] = biological target: Hypoxia-inducible factor 1-alpha (Homo sapiens) (UniProt Q16665); assay: Inhibition of HIF-1 alpha in human PANC1 cells assessed as inhibition of Bcl2 expression at 1 to 20 uM by Western blotting analysis in hypoxia condition; format: cell-based; conditions: PANC-1
Sequence of Hypoxia-inducible factor 1-alpha (Homo sapiens) (Q16665 whole entry, looked up, the tested form may be a part): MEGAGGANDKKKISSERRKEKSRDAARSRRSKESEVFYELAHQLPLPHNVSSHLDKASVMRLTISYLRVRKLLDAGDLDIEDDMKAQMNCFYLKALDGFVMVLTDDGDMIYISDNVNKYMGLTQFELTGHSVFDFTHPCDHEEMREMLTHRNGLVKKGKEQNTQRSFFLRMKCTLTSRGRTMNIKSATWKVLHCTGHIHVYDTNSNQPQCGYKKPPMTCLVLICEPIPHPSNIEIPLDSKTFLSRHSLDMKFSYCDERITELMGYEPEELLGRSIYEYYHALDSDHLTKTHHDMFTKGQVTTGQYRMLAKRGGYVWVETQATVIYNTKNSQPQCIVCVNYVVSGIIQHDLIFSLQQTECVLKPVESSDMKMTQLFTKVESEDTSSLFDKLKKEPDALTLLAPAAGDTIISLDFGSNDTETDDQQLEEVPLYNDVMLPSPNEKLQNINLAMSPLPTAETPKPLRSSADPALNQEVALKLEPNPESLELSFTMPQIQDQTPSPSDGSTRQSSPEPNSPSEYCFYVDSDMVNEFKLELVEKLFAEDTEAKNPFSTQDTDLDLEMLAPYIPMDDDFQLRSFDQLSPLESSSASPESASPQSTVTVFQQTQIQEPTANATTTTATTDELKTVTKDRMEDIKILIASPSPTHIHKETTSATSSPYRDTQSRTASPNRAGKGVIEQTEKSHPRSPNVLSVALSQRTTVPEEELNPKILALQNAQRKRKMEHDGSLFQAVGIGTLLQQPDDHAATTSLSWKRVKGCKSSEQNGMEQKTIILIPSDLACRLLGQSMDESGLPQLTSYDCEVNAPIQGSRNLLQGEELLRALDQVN

[9] = biological target: Endothelial PAS domain-containing protein 1 (Homo sapiens) (UniProt Q99814); assay: Inhibition of HIF-2 alpha in human MDA-MB-468 cells at 1 to 20 uM by Western blotting analysis in hypoxia condition; format: cell-based
[10] = biological target: Signal transducer and activator of transcription 3 (Homo sapiens) (UniProt P40763); assay: Inhibition of Stat3 in human MDA-MB-231 cells assessed as inhibition of Stat3 phosphorylation at 10 uM after 18 hrs by Western blotting analysis; format: cell-based
Sequence of Signal transducer and activator of transcription 3 (Homo sapiens) (P40763 whole entry): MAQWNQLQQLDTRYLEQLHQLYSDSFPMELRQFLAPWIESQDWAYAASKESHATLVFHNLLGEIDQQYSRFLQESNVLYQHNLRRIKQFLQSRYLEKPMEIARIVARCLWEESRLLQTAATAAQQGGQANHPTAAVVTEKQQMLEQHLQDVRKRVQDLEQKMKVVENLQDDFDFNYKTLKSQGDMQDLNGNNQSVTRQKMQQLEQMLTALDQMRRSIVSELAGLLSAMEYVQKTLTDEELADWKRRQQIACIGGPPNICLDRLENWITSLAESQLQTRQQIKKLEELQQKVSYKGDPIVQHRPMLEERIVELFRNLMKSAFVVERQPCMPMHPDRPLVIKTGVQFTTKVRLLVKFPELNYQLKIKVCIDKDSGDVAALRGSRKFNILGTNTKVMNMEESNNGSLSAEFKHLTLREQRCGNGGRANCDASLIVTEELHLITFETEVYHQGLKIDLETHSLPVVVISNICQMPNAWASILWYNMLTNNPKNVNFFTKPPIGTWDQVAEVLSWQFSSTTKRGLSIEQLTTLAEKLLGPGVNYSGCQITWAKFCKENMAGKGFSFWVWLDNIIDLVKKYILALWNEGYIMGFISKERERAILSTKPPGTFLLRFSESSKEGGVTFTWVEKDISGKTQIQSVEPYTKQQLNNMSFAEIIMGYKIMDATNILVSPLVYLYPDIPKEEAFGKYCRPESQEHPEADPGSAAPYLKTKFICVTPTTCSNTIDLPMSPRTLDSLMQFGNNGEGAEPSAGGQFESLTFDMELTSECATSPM

[11] = tested on: MDA-MB-231; assay: Anticancer activity in human MDA-MB-231 cells assessed as reduction of total Stat3 level at 10 uM after 18 hrs by Western blotting analysis; format: functional, cell-based
[12] = biological target: Hypoxia-inducible factor 1-alpha (Homo sapiens) (UniProt Q16665); assay: Inhibition of HIF-1alpha in human MDA-MB-231 cells at 10 uM after 18 hrs by Western blotting analysis in hypoxia condition; format: cell-based
[13] = tested on: Mus musculus; assay: Toxicity in Balb nu/nu mouse assessed as change in body weight at 2 mg/kg, ip administered every other day for 10 days measured after 19 days; format: organism-based; parameters: dose 2 mg/kg, route intraperitoneal; conditions: in vivo, 456 h
[14] = tested on: PANC-1; assay: Antitumor activity against human PANC1 cells xenografted in Balb nu/nu mouse assessed as tumor regression at 2 mg/kg, ip administered every other day for 10 days measured after 19 days; format: functional, organism-based; parameters: dose 2 mg/kg
[15] = tested on: MDA-MB-231; assay: Induction of apoptosis in human MDA-MB-231 cells assessed as reduction in cell viability at 8 uM after 12 to 48 hrs by MTT assay; format: functional, cell-based
[16] = tested on: MDA-MB-468; assay: Induction of apoptosis in human MDA-MB-468 cells assessed as reduction in cell viability at 8 uM after 12 to 48 hrs by MTT assay; format: functional, cell-based
[17] = Induction of apoptosis in human MCF10A cells assessed as reduction in cell viability at 1 to 10 uM by MTT assay; format: cell-based; conditions: mcf-10a
[18] = tested on: MCF7; assay: Induction of apoptosis in human MCF7 cells assessed as reduction in cell viability at 10 uM after 12 to 48 hrs by MTT assay; format: functional, cell-based
[19] = biological target: Proto-oncogene tyrosine-protein kinase Src (Homo sapiens) (UniProt P12931); assay: Inhibition of Src kinase (unknown origin) phosphorylation at 10 uM after 6 hrs by cell-based Western blotting analysis
[20] = biological target: Proto-oncogene tyrosine-protein kinase Src (Homo sapiens) (UniProt P12931); assay: Inhibition of Src kinase (unknown origin) assessed as total SRC level at 10 uM after 6 hrs by cell-based Western blotting analysis
[21] = biological target: Tyrosine-protein kinase JAK2 (Homo sapiens) (UniProt O60674); assay: Inhibition of JAK2 (unknown origin) phosphorylation at 10 uM after 6 hrs by cell-based Western blotting analysis
[22] = biological target: Aryl hydrocarbon receptor nuclear translocator (Homo sapiens) (UniProt P27540); assay: Inhibition of HIF-1 beta in human PC3 cells after 18 hrs by Western blotting analysis in hypoxia condition; format: cell-based; conditions: PC-3
[23] = biological target: Histone acetyltransferase p300 (Homo sapiens) (UniProt Q09472); assay: Inhibition of P300 in human PC3 cells after 18 hrs by Western blotting analysis in hypoxia condition; format: cell-based; conditions: PC-3
[24] = biological target: Hypoxia-inducible factor 1-alpha (Homo sapiens) (UniProt Q16665); assay: Inhibition of HIF-1 alpha in human PANC1 cells after 18 hrs by Western blotting analysis in hypoxia condition in presence of T40214; format: cell-based; conditions: PANC-1
[25] = tested on: PANC-1; assay: Inhibition of ERK in human PANC1 cells at 1 to 20 uM by Western blotting analysis; format: cell-based
[26] = biological target: T1, Signal transducer and activator of transcription 1-alpha/beta (Homo sapiens) (UniProt P42224); assay: Inhibition of Stat1 phosphorylation in human MDA-MB-231 cells at 0.05 to 10 uM by Western blotting analysis; format: cell-based
T1 sequence (whole entry): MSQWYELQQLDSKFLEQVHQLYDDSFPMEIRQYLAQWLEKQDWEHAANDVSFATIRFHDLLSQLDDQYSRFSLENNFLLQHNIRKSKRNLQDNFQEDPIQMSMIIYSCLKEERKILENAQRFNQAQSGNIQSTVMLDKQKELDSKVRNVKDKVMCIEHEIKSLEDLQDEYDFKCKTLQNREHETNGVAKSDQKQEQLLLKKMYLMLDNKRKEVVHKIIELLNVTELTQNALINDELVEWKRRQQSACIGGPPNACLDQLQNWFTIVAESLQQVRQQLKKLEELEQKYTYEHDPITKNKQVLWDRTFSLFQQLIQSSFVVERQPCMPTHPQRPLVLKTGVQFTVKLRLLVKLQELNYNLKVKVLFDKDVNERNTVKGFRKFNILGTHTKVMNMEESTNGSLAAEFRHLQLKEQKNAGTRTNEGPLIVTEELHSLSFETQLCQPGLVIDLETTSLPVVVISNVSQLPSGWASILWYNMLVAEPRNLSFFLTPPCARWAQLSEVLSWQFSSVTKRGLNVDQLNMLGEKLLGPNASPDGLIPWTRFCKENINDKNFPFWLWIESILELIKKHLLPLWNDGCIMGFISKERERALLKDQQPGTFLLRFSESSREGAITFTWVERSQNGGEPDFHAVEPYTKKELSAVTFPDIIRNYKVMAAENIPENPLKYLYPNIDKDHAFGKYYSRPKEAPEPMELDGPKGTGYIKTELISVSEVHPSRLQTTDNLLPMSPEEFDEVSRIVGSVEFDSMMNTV

[27] = biological target: Signal transducer and activator of transcription 3 (Homo sapiens) (UniProt P40763); conditions: MDA-MB-468, 1 to 20 uM
Description: Inhibition of Stat3 phosphorylation in human MDA-MB-468 cells assessed as inhibition of Bcl2 expression at 1 to 20 uM by Western blotting analysis in normoxia condition

[28] = biological target: Signal transducer and activator of transcription 3 (Homo sapiens) (UniProt P40763); conditions: MDA-MB-468, 1 to 20 uM; remark: listed apart in the source
Description: Inhibition of Stat3 phosphorylation in human MDA-MB-468 cells assessed as inhibition of Bcl2 expression at 1 to 20 uM by Western blotting analysis in hypoxia condition

[29] = biological target: Signal transducer and activator of transcription 3 (Homo sapiens) (UniProt P40763); conditions: 10 uM
Description: Inhibition of STAT3 (unknown origin) assessed as total STAT3 level at 10 uM after 6 hrs by cell-based Western blotting analysis

[30] = biological target: Signal transducer and activator of transcription 3 (Homo sapiens) (UniProt P40763); conditions: 10 uM; remark: listed apart in the source
Description: Inhibition of STAT3 (unknown origin) phosphorylation at 10 uM after 30 mins by cell-based Western blotting analysis

Sequence of Proto-oncogene tyrosine-protein kinase Src (Homo sapiens) (P12931 2-536 limits assumed): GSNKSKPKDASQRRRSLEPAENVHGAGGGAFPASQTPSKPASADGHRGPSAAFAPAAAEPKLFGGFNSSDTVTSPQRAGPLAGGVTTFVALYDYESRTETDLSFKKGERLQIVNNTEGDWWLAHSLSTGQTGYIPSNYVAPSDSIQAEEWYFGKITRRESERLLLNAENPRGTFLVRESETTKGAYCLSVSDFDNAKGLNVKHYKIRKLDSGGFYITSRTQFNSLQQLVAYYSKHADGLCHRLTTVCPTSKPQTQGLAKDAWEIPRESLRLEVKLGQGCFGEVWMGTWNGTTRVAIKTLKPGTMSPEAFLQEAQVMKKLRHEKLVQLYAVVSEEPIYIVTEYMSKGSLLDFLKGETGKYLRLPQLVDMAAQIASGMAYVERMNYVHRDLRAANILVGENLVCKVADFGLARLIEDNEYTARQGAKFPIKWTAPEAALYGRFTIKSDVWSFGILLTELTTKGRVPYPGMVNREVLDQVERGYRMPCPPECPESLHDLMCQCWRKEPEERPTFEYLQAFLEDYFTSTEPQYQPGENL

CN(C)CCCN1C(=O)c2ccc3c4ccc5c6c(ccc(c7ccc(c2c37)C1=O)c64)C(=O)N(CCCN(C)C)C5=O
inhibition [1]: inactive
inhibition [2]: inactive
inhibition [3]: inactive
inhibition [4]: inactive
inhibition [5]: inactive
Activity [6]: Active
Activity [7]: Active
inhibition [8]: Active
inhibition [9]: Active
inhibition [10]: Active
Activity [11]: inactive
inhibition [12]: Active
Activity [13]: Non-toxic
Activity [14]: Active
Activity [15]: Active
Activity [16]: Active
Activity [17]: Non-toxic
Activity [18]: Active
inhibition [19]: inactive
inhibition [20]: inactive
inhibition [21]: inactive
inhibition [22]: inactive
inhibition [23]: inactive
inhibition [24]: Active
inhibition [25]: inactive
inhibition [26]: inactive
inhibition [27]: Active
inhibition [28]: Active
inhibition [29]: inactive
inhibition [30]: Active
